From patent US20100120843A1, “PHARMACEUTICAL COMPOSITION FOR TREATING ALCOHOL-INDUCED LIVER INJURY COMPRISING (4S,5S)-5-FLUOROMETHYL-5-HYDROXY-4-(AMINO)-DIHYDROFURAN-2-ONE OR PHARMACEUTICALLY ACCEPTABLE SALT THEREOF” (LG Life Sciences Ltd., priority 2008, published 2010) come the findings set out here.

Data set [1] is described as follows: Determination of serum liver enzymes (AST, ALT) in association with liver injury. The settings on record: 12 weeks. It counts as in vivo, rat. From the text:
(§1) Male Sprague-Dawley rats (5 weeks of age, 170 g of body weight) were divided into four experimental groups: control diet group, control diet with CF1 group, ethanol (EtOH) diet group and EtOH diet with CF1 group. Control diet group, control diet with CF1 group, EtOH diet group, and EtOH diet with CF1 group were fed, respectively, with Lieber-Decarli control diet, Lieber-Decarli control diet and CF1, Lieber-Decarli liquid diet containing 6% ethanol, and Lieber-Decarli liquid diet containing 6% ethanol and CF1 for 12 weeks. CF1 was dissolved in PEG (polyethylene glycol) 400 and 5% ethanol solution (PEG 400:ethanol=2:1), and administered daily at 10 mg/kg by oral gavage. About 8 hours prior to rats' sacrifice, lipopolysaccharide (LPS) was intraperitoneally injected to increase the liver injury in the amount of 1 mg/kg.
Liver injury was assessed by a biochemical assay of liver enzyme. After the 12 weeks' experiment, the blood samples were obtained from all rats' heart. Serum aspartate transaminase (AST) and alanine transaminase (ALT) values were analyzed for 100 μl of plasma from each blood sample with Hitachi 7050 automatic analyzer (Hitachi, Japan).

In a further data set the test system is liver. Nature of the data set: Histological assessment of liver (H&E and Masson's trichrome). It counts as in vivo, rat.
From the text: as §1
The extracted livers were fixed by 10% neutral formalin in PBS (phosphate buffered saline). Then, a paraffin section of 4 μm thickness was prepared, and stained with H&E (Hematoxylin & Eosin) and Masson's trichrome. The stained tissue was photographed at 100 times magnification (FIGS. 4A and 4B).

Another data set deals with T1, caspase-8 (Rattus norvegicus, UniProt Q9JHX4).
T1 construct: the activities of caspase-3 and caspase-8 were assayed in cellular extraction of liver tissue; from tissue; host or cells: liver of Sprague-Dawley rats dosed orally with CF1
T1 sequence (Q9JHX4 219-378 limits assumed): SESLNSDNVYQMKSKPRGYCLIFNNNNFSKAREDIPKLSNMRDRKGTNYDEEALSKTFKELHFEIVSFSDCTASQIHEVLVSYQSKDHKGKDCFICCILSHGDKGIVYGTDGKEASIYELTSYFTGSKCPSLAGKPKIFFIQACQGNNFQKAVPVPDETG
T1 sequence (Q9JHX4 389-482 limits assumed): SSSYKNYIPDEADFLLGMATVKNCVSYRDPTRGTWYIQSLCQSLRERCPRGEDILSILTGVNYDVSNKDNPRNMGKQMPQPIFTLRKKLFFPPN
In words: Fluorometric assay of caspase-8 activity in cellular extraction of liver tissue. The following applies: EtOH diet with CF1 10 mg/kg oral daily, 12 weeks, LPS 1 mg/kg i.p. 8 h before sacrifice; FIG. 2. It counts as in vivo.
From the text: as §1
(§2) To investigate the role of caspase in alcohol-induced liver injury, the activities of caspase-3 and caspase-8 were assayed in cellular extraction of liver tissue. The activities of caspase-3 and caspase-8 were assayed by using EnzChek™ Caspase Assay Kit molecular Probes, USA) according to the manufacturer's instructions.

In another data set the test system is apoptosis of liver cell. Nature of the data set: TUNEL staining of liver tissue (apoptosis of liver cell). The format is in vivo, rat.
From the text: as §1
To investigate apoptosis of liver cell according to alcohol ingestion, TUNEL staining was processed. TUNEL staining was carried out using in situ Cell Death Detection Kit (Roche Diagnostics, Germany) according to the manufacturer's instructions.
Stained tissue was photographed at 100 times magnification (FIG. 5). TUNEL positive cells per field were calculated.

For the next data set, the target named is T2, caspase-3 (Rattus norvegicus, UniProt P55213).
T2 construct: the activities of caspase-3 and caspase-8 were assayed in cellular extraction of liver tissue; from tissue; host or cells: liver of Sprague-Dawley rats dosed orally with CF1
T2 sequence (P55213 29-175 limits assumed): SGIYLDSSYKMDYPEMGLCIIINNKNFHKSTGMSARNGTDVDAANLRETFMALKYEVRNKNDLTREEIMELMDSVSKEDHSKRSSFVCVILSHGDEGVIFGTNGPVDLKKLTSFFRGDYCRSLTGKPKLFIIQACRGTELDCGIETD
T2 sequence (P55213 176-277 limits assumed): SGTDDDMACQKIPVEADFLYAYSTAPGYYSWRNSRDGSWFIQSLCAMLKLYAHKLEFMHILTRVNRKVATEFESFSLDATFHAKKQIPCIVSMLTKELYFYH
Nature of the data set: Fluorometric assay of caspase-3 activity in cellular extraction of liver tissue. The format is in vivo. The settings on record: EtOH diet with CF1 10 mg/kg oral daily, 12 weeks, LPS 1 mg/kg i.p. 8 h before sacrifice; FIG. 1.
From the text: as §1, §2

As to `CC(C)[C@@]1(C(=O)N[C@H]2CC(=O)O[C@]2(O)CF)CC(c2nccc3ccccc23)=NO1` [CF1, (4S,5S)-5-fluoromethyl-5-hydroxy-4-({[(5R)-5-isopropyl-3-(isoquinolin-1-yl)-4,5-dihydro-5-isoxazolyl]carbonyl}amino)-dihydrofuran-2-one], the “Serum alanine transaminase (ALT)” value in data set [1] (Alcohol diet with CF1 10 mg/kg oral daily, alcohol diet group 336±163 IU/L) was found to be 120±10 IU/L. In addition, the “Serum aspartate transaminase (AST)” value in data set [1] (Alcohol diet with CF1 10 mg/kg oral daily, alcohol diet group 454±175 IU/L) amounted to 194±22 IU/L. The “Serum AST and ALT values compared with control diet group” value in data set [1] (Control diet with CF1 10 mg/kg oral daily, FIG. 3) is listed as “did not show significant change”. Also, in the data set on liver (Alcohol diet with CF1 compared with control diet groups, no statistical significance, FIG. 4B), the “Hepatic fibrosis (Masson's trichrome)” value is “some progression of hepatic fibrosis”. In addition, the “Fatty liver (H&E staining)” value in the data set on liver (Alcohol diet with CF1 vs alcohol diet group, FIG. 4A) is on record as “inhibited the increase of fatty liver”. Further, the “caspase-8 activity in liver tissue” value on caspase-8 was “decreased to the level of control group”. For the same compound, the “TUNEL positive cells per field” value with apoptosis of liver cell (Alcohol diet with CF1 10 mg/kg oral daily, 12 weeks, alcohol diet group 25.14±9.14, control diet group 10.3±1.9) is 6.4±1.1 TUNEL positive cells/field. Also, in the data set with apoptosis of liver cell (Control diet with CF1 group, FIGS. 5 and 6), the TUNEL positive cells result is “rarely observed”. In addition, the “caspase-3 activity in liver tissue” value on caspase-3 was “decreased to the level of control group”.
